Patent publication US20200131473A1, “METHOD OF GENERATING 2 CELL-LIKE STEM CELLS” (IFOM FONDAZIONE ISTITUTO FIRC DI ONCOLOGIA MOLECOLARE, priority 2017, published 2020)

Legend:
mESC lines E14 and R1 = assay: Whole gene expression profiling (microarray) of mESC lines E14 and R1; assay type: cell-based, mouse
Experimental: The quality of total RNA was first assessed using an Agilent Bioanalyzer 2100 (Agilent Technologies, Palo Alto, Calif.). Biotin-labeled cDNA targets were synthesized starting from 150 ng of total RNA. Double stranded cDNA synthesis and related cRNA was performed with GeneChip® WT Plus Kit (Affymetrix, Santa Clara, Calif.). With the same kit was synthesized the sense strand cDNA before to be fragmented and labeled. […] Each eukaryotic GeneChip® probe array contains probe sets for several B. subtilis genes that are absent in the samples analyzed (lys, phe, thr, and dap). This Poly-A RNA Control Kit contains in vitro synthesized, polyadenylated transcripts for these B. subtilis genes that are pre-mixed at staggered concentrations to allow GeneChip® probe array users to assess the overall success of the assay.
Hybridization was performed using the GeneAtlas™ Hybridization, Wash and Stain Kit. […] Targets were diluted in hybridization buffer at a concentration of 0.05 μg/ul, denatured at 99° C. for 5 minutes, incubated at 45° C. for 5 minutes and centrifuged at 5,000 rpm for 1 minute. The Array Strip is then moved to a hybridization tray, which contains the hybridization cocktails. A single Gene 2.1 PEG Array Strip is hybridized with four different biotin-labeled targets. Hybridizations were performed for 20 hours at 48° C. in the GeneAtlas™ Hybridization Station. The Array Strips were washed and stained in the GeneAtlas™ Personal Fluidics Station. At the end of this procedure the array strips were placed into the imaging tray, which contains the Array Holding buffer.
The array strips were imaged using the GeneAtlas™ Imaging Station. Affymetrix GeneAtlas™ Command Console software was used to acquire the Array Strip images and […].
The CAMERA gene set enrichment p-values were calculated using the limma package and the camera function 30.
In the GSVA based enrichment analysis, we used the MsigDB gene sets, and transformed the individual gene expression values into gene set expression values with the GSVA package 32. We calculated the gene set differential expression as in the gene level differential expression analysis, only skipping the RMA normalization step.

[1] = test system: ESC lines E14, R1 and MC1; assay: High-throughput transcriptional profiling (RNA sequencing) of ESC lines E14, R1 and MC1; assay type: cell-based, mouse
Experimental: RNA samples were quantified using Qubit 2.0 Fluorometer (Life Technologies, Carlsbad, Calif., USA) and RNA integrity was checked with RNA Screen Tape on Agilent 2200 TapeStation (Agilent Technologies, Palo Alto, Calif., USA). […] RNA sequencing library preparation was prepared using Ribo-Zero rRNA Removal Kit and TruSeq Stranded Total RNA library Prep kit following manufacturer's protocol (Illumina, Cat # RS-122-2101). Briefly, rRNA was depleted with Ribo-Zero rRNA Removal Kit. rRNA depleted RNAs were fragmented for 8 minutes at 94° C. First strand and second strand cDNA were subsequently synthesized. The second strand of cDNA was marked by incorporating dUTP during the synthesis. cDNA fragments were adenylated at 3′ends, and indexed adapter was ligated to cDNA fragments. Limited cycle PCR was used for library enrichment. The incorporated dUTP in second strand cDNA quenched the amplification of second strand, which helped to preserve the strand specificity. Sequencing libraries were validated using DNA Analysis Screen Tape on the Agilent 2200 TapeStation (Agilent Technologies, Palo Alto, Calif., USA), and quantified by using Qubit 2.0 Fluorometer (Invitrogen, Carlsbad, Calif.) as well as by quantitative PCR (Applied Biosystems, Carlsbad, Calif., USA).
The sequencing libraries were multiplexed and clustered on 1 lane of flowcell. […] On average ˜29 million reads were generated for a sample and average insert size ranged between 204-231 for the samples.
Transcript and gene level quantification was done with Kallisto (version 0.43.0)^16. […] Additionally, all reads were mapped with the STAR spliced aligner (version 2.5.2b)^17 to the GRCm38 (mm10) genome after trimming the reads to 100 bp with Trimmomatic (version 0.36)^18. Repeat expression was quantified by counting fragments overlapping with the repeat annotation from the Choi et al. 2017 paper, with using FeatureCounts from the subread package (version 1.5.2)^19. […]
Read counts for each sample estimated by Kallisto were imported into the R statistical environment (version 3.2.2) using tximport (version 1.1.2)^20. […]

SMILES | downregulated genes (mESC lines E14 and R1; APH treatment, E14 and R1) | upregulated genes with more than two-fold changes (mESC lines E14 and R1; APH treatment, E14 and R1) | DEGs overlapping with totipotency specific genes (mESC lines E14 and R1; APH treatment, 43 out of 201, compared with published datasets) | two placenta-related gene categories (MSigDB gene-sets analysis) (mESC lines E14 and R1; APH vs CNTL) | downregulated genes ([1]; APH treatment, FDR<0.05) | upregulated genes with more than two-fold change ([1]; APH treatment, FDR<0.05) | APH induced 2C-like genes which reverted their expression level (mESC lines E14 and R1; 31 out of 43, inhibitor added after APH) | two placenta-related gene categories upon ATR inhibition (mESC lines E14 and R1; APH plus inhibitor) | DNA repair signaling pathway (geneset enrichment analysis) (mESC lines E14 and R1; inhibitor added after APH-induced replication stress) | genes shared between APH and DUX-induced condition rescued ([1]; APH plus ATRi)
C[C@@]1(CO)[C@H](O)CC[C@@]2(C)[C@H]1CC[C@H]1C[C@@H]3C[C@@]12CC[C@]3(O)CO [APH, aphidicolin] | 21 genes | 193 genes | 17% | strong and highly significant enrichment | 640 genes | 3074 genes | – | – | – | –
CNCc1ccc(-c2cc(-c3nc(-c4ccc(S(=O)(=O)C(C)C)cc4)cnc3N)on2)cc1 [VE 822] | – | – | – | – | – | – | 72% | robustly suppressed | robust silencing | 71%
